Results published in patent US9204653B2, “5-fluoro pyrimidine derivatives” (DOW AGROSCIENCES LLC, priority 2008, dated 2015).
Read-outs that look alike come from different tables or passages of the source.

Columns and labels:
[1] = system: Cercospora beticola; Bayer Code CERCBE; assay: Leaf spot of sugar beets; format: in vivo, Cercospora beticola on sugar beets (variety HH-88); conditions: 24 h, % disease control rating, one day protectant; for pest or weed control at 25 ppm: read-out: CERCBE 1 DP 25 ppm; for pest or weed control at 75 ppm: read-out: CERCBE 1 DP 75 ppm
[2] = system: Mycosphaerella graminicola; Anamorph: Septoria tritici; Bayer Code SEPTTR; assay: Leaf blotch of wheat, foliar fungicide treatment, one day protectant (1DP) or three day curative (3DC); format: in vivo, Septoria tritici on wheat plants (variety Yuma); conditions: Zymoseptoria tritici
[3] = system: Venturia inaequalis; Bayer Code VENTIN; assay: Apple scab; format: in vivo; conditions: 24 h, % disease control rating, one day protectant; for pest or weed control at 25 ppm: read-out: VENTIN 1 DP 25 ppm; for pest or weed control at 75 ppm: read-out: VENTIN 1 DP 75 ppm
[4] = 24 h, one day protectant (1DP), percent disease control rating, read-out: SETTTR 1DP 25 ppm
[5] = 24 h, one day protectant (1DP), percent disease control rating, read-out: SEPTTR 1DP 100 ppm
[6] = 72 h, three day curative (3DC), percent disease control rating, read-out: SEPTTR 3DC 25 ppm
[7] = 72 h, three day curative (3DC), percent disease control rating, read-out: SEPTTR 3DC 100 ppm
[8] = 24 h, one day protectant (1DP), rating of percent disease control, read-out: SETTTR 1DP 25 ppm
[9] = 24 h, one day protectant (1DP), rating of percent disease control, read-out: SEPTTR 1DP 100 ppm
[10] = 72 h, three day curative (3DC), rating of percent disease control, read-out: SEPTTR 3DC 25 ppm
[11] = 72 h, three day curative (3DC), rating of percent disease control, read-out: SEPTTR 3DC 100 ppm
[12] = 24 h, one day protectant, rating of percent disease control, read-out: SETTTR 1DP 25 ppm
[13] = 24 h, one day protectant, rating of percent disease control, read-out: SEPTTR 1DP 100 ppm
[14] = 72 h, three day curative, rating of percent disease control, read-out: SEPTTR 3DC 25 ppm
[15] = 72 h, three day curative, rating of percent disease control, read-out: SEPTTR 3DC 100 ppm

Row | SMILES | pest or weed control at 25 ppm [1] | pest or weed control at 75 ppm [1] | pest or weed control at 25 ppm [2, 4] | pest or weed control at 100 ppm [2, 5] | pest or weed control at 25 ppm [2, 6] | pest or weed control at 100 ppm [2, 7] | pest or weed control at 25 ppm [3] | pest or weed control at 75 ppm [3] | pest or weed control at 25 ppm [2, 8] | pest or weed control at 100 ppm [2, 9] | pest or weed control at 25 ppm [2, 10] | pest or weed control at 100 ppm [2, 11] | pest or weed control at 25 ppm [2, 12] | pest or weed control at 100 ppm [2, 13] | pest or weed control at 25 ppm [2, 14] | pest or weed control at 100 ppm [2, 15] | pest or weed control at 50 ppm ([2]; 24 h, % disease control rating, one day protectant, 50 ppm) | pest or weed control at 200 ppm ([2]; 24 h, % disease control rating, one day protectant, 200 ppm)
1 | N#CN/C=N/c1nc(OCc2ccc(F)cc2)ncc1F [Compound 23, N-[5-Fluoro-2-(4-fluorobenzyloxy)pyrimidin-4-yl]-N′-cyanoformamidine] | 0 to 25% | 51 to 75% | 76 to 100% | 76 to 100% | 76 to 100% | 76 to 100% | 51 to 75% | 76 to 100% |  |  |  |  |  |  |  |  |  | 
2 | Nc1nc(OCc2nc(Cl)ccc2Cl)ncc1F [Compound 141] | 0 to 25% | 0 to 25% | 0 to 25% | 76 to 100% | 51 to 75% | 26 to 50% | 0 to 25% | 26 to 50% |  |  |  |  |  |  |  |  |  | 
3 | O=C(Nc1nc(OCc2ccc(F)cc2)ncc1F)c1cccc2nnsc12 [Compound 411] | 26 to 50% | 26 to 50% |  |  |  |  | 51 to 75% | 51 to 75% | 76 to 100% | 76 to 100% | 26 to 50% | 26 to 50% |  |  |  |  |  | 
4 | Nc1nc(OCCCc2ccccn2)ncc1F [Compound 635] | 26 to 50% | 26 to 50% |  |  |  |  | 26 to 50% | 76 to 100% |  |  |  |  | 26 to 50% | 76 to 100% | 0 to 25% | 76 to 100% |  | 
5 | O=C(Nc1nc(OCc2cccc(F)c2)ncc1F)c1ccccc1 [Compound 158] | 0 to 25% | 0 to 25% | 76 to 100% | 76 to 100% | 76 to 100% | 76 to 100% | 51 to 75% | 51 to 75% |  |  |  |  |  |  |  |  |  | 
6 | O=C1OC(Nc2nc(OCc3ccc(F)cc3)ncc2F)c2ccccc21 (stereo not shown) [Compound 226] | 0 to 25% | 26 to 50% |  |  |  |  | 26 to 50% | 76 to 100% | 76 to 100% | 76 to 100% | 76 to 100% | 76 to 100% |  |  |  |  |  | 
7 | Fc1ccc(COc2ccc(F)c(NC(=S)Nc3ccccc3F)c2)cc1 [Compound 135] | 26 to 50% | 26 to 50% | 76 to 100% | 76 to 100% | 51 to 75% | 76 to 100% | 51 to 75% | 51 to 75% |  |  |  |  |  |  |  |  |  | 
8 | Nc1nc(OCC2CCCC2)ncc1F [Compound 370] | 26 to 50% | 26 to 50% |  |  |  |  | 26 to 50% | 26 to 50% | 0 to 25% | 0 to 25% | 0 to 25% | 0 to 25% |  |  |  |  |  | 
9 | Nc1nc(OC(Cc2ccccc2)c2ccc(F)cc2)ncc1F (stereo not shown) [Compound 61] | 0 to 25% | 0 to 25% | 76 to 100% | 76 to 100% | 0 to 25% | 0 to 25% | 76 to 100% | 51 to 75% |  |  |  |  |  |  |  |  |  | 
10 | Fc1ccccc1CNc1nc(OCC(F)(F)F)ncc1F [Compound 894] | 0 to 25% | 0 to 25% |  |  |  |  | 0 to 25% | 26 to 50% |  |  |  |  |  |  |  |  | 0 to 25% | 0 to 25%
11 | Nc1nc(OCc2csc3ccccc23)ncc1F [Compound 630] | 0 to 25% | 0 to 25% |  |  |  |  | 51 to 75% | 76 to 100% |  |  |  |  | 76 to 100% | 76 to 100% | 76 to 100% | 76 to 100% |  | 
12 | CN(C)/C=N/c1nc(OCc2cccs2)ncc1F [Compound 570] | 0 to 25% | 26 to 50% |  |  |  |  | 26 to 50% | 76 to 100% |  |  |  |  | 76 to 100% | 76 to 100% | 76 to 100% | 76 to 100% |  | 
